Results on 16 compounds are retold here after patent US9034899B2, “Aryl, heteroaryl, and heterocycle substituted tetrahydroisoquinolines and use thereof” (Albany Molecular Research, Inc., priority 2009, dated 2015).

As a reminder, the IC50 is the midpoint of a concentration-inhibition curve. A word on the inhibition: it is the share of the control response that was lost under treatment.

One assay has as its target hNET (Homo sapiens (Human), UniProt P23975). The experiment in a line: NET radioligand binding assay ([3H]nisoxetine, HEK-293 membranes). Particulars: for IC50: (+)-enantiomers; for inhibition at 0.1 µM: 100 nM, NET IC50 with footnote *. As to the method:
(§1) Recombinant HEK-293 cells expressing either the hSERT, hDAT, or hNET proteins were harvested from T-175 flasks as follows. The medium was removed from the flasks and the cells rinsed with HBSS without Ca and without Mg. The cells were then incubated for 5-10 minutes in 10 mM Tris-Cl, pH 7.5, 5 mM EDTA before the cells were lifted with a combination of pipetting and scraping, as needed. The cell suspension was collected into centrifuge bottles and homogenized for 30 seconds with a Polytron homogenizer. The suspension was centrifuged for 30 minutes at 32,000×g, 4° C. The supernatant was decanted and the pellet resuspended and homogenized in 50 mM Tris-Cl, pH 7.5, 1 mM EDTA for 10 seconds. The suspension was then centrifuged again for 30 minutes at 32,000×g, 4° C. The supernatant was decanted and the pellet resuspended in 50 mM Tris-Cl, pH 7.5, 1 mM EDTA and briefly homogenized. A Bradford assay (Bio-rad) was performed and the membrane preparation diluted to 2 mg/ml with 50 mM Tris-Cl, pH 7.5, 1 mM EDTA. Aliquots were prepared, and then frozen and stored at −80° C.
(§2) Compounds were dissolved in 100% DMSO at a concentration 100 times the desired highest assay concentration, serially diluted 1:3 in 100% DMSO, and 1.0 μl/well of each solution was dispensed to a Nunc polypropylene, round bottom, 384-well plate. 100% inhibition is defined with 1.0 μl/well of 10 mM desipramine dissolved in DMSO. 50 μl/well of a 2× membrane preparation (0.4 mg/ml in 50 mM Tris-Cl, pH 7.5, 120 mM NaCl, 5 mM KCl) and 50 μl/well of a 2× radioligand solution (4 nM [^3H]nisoxetine in 50 mM Tris-Cl, pH 7.5, 120 mM NaCl, 5 mM KCl) were added to the well and the reaction incubated for 1 hour at room temperature. The contents of the assay plate were then transferred to a Millipore MultiscreenHTS GF/B filter plate which was pretreated with 0.5% PEI for at least one hour. The plate was vacuum filtered and washed with 7 washes of 100 μl/well 50 mM Tris-Cl, pH 7.5, 120 mM NaCl, 5 mM KCl chilled to 4° C. The filtration and washing were completed in less than 90 seconds. The plates were air-dried overnight, 12 μl/well of MicroScint scintillation fluid added, and the plates counted in a Trilux.
(§3) The raw data was normalized to percent inhibition using control wells defining 0% (DMSO only) and 100% (selective inhibitor) inhibition which were run on each plate. Each plate was run in triplicate, and the concentration response curve thus generated was fit using the four-parameter dose response equation, Y=Bottom+(Top-Bottom)/(1+10^((LogIC50−X)*HillSlope)) in order to determine the IC50 value for each compound. The radioligand concentration chosen for each assay corresponds to the Kd concentration determined through saturation binding analysis for each assay.

The target of the next assay is hDAT (Homo sapiens (Human), UniProt Q01959). Briefly: DAT radioligand binding assay ([125I]RTI-55, HEK-293 membranes). Particulars: for inhibition at 0.1 µM: 100 nM, DAT IC50 with footnote *. Here is the method:
as §1
Compounds were dissolved in 100% DMSO at a concentration 100 times the desired highest assay concentration, serially diluted 1:3 in 100% DMSO, and 0.4 μl/well of each solution was dispensed to a Nunc polypropylene, round bottom, 384-well plate. 100% inhibition is defined with 0.4 μl/well of 1 mM GBR-12935 dissolved in DMSO. 20 ul/well of a 2× membrane preparation (12.5 μg/ml in 30 mM sodium phosphate buffer, pH 7.9 at 4° C.) and 20 μl/well of a 2× radioligand solution ([…] [^125I]RTI-55 in 30 mM sodium phosphate buffer, pH 7.9 at 4° C.) were added to the well and the reaction incubated for 1 hour at room temperature. The contents of the assay plate were then transferred to a Millipore MultiscreenHTS GF/B filter plate which was pretreated with 0.5% PEI for at least one hour. The plate was vacuum-filtered and washed with 7 washes of 100 μl/well 50 mM Tris-Cl, pH 7.5, 120 mM NaCl, 5 mM KCl chilled to 4° C. The filtration and washing were completed in less than 90 seconds. The plates were air-dried overnight, 12 μl/well of MicroScint scintillation fluid added, and the plates counted in a Trilux.
as §3

For the next assay, the target named is hSERT (Homo sapiens (Human), UniProt P31645). The experiment in a line: SERT radioligand binding assay ([125I]RTI-55, HEK-293 membranes). As to conditions: for inhibition at 0.1 µM: 100 nM, SERT IC50 with footnote *. As to the method: as §1, with “The” for “Recombinant HEK-293 cells expressing either the hSERT, hDAT, or hNET proteins were harvested from T-175 flasks as follows. The”
as §2, with “0.4” for “1.0”, “100% inhibition is defined with 1.0 μl/well of 10 mM desipramine dissolved in DMSO. 50 μl/well of a 2× membrane preparation (0.4 mg/ml in 50 mM Tris-Cl, pH 7.5, 120 mM NaCl, 5 mM KCl) and 50 μl/well of a 2× radioligand solution (4 nM [^3H]nisoxetine in 50 mM Tris-Cl, pH 7.5, 120 mM NaCl, 5 mM KCl) were added to the well and the reaction incubated for 1 hour at room temperature.” left out
Each plate was run in triplicate, and the concentration response curve thus generated was fit using the four-parameter dose response equation, Y=Bottom+(Top-Bottom)/(1+10^((LogIC50−X)*HillSlope)) in order to determine the IC50 value for each compound. The radioligand concentration chosen for each assay corresponds to the Kd concentration determined through saturation binding analysis for each assay.

The mark [1] stands for this setting: (+)-enantiomers, read-out: DAT IC50.
Setting [2] is: (+)-enantiomers, read-out: SERT IC50.

Where two headings read alike, the source gives them in different places.

Chain of hDAT (Q01959 whole entry): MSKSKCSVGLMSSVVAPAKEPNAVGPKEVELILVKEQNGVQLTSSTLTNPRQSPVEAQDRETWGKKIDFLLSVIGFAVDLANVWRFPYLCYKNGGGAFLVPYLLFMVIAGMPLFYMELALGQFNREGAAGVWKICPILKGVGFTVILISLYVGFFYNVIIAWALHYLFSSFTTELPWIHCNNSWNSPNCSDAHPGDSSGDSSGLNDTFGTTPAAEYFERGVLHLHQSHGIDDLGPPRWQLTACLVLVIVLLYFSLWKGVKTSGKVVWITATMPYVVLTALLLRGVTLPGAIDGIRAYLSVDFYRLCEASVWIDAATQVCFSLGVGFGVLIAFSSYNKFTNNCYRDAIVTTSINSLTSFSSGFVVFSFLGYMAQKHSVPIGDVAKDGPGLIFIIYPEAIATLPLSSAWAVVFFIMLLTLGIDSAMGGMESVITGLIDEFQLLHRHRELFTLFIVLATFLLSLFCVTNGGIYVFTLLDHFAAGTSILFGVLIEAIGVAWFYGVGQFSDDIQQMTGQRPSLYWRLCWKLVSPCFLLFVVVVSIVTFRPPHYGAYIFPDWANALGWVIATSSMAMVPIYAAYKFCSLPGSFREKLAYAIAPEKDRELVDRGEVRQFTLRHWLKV
Chain of hNET (P23975 whole entry): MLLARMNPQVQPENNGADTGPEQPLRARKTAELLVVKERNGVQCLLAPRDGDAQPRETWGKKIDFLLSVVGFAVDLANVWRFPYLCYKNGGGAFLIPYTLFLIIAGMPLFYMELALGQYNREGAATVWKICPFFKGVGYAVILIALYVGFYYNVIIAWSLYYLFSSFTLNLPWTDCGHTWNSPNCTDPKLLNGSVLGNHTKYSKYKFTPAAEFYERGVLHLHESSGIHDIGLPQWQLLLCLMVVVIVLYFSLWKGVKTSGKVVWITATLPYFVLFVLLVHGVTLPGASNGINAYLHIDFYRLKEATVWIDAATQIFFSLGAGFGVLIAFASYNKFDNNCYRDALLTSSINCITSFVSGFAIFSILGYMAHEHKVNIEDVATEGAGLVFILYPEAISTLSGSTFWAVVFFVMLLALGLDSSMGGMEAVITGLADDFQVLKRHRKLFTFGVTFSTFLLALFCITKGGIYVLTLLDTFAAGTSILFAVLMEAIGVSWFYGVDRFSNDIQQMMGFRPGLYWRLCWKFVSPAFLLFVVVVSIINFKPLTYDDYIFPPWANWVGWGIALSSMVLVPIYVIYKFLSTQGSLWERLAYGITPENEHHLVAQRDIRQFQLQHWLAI
Chain of hSERT (P31645 whole entry): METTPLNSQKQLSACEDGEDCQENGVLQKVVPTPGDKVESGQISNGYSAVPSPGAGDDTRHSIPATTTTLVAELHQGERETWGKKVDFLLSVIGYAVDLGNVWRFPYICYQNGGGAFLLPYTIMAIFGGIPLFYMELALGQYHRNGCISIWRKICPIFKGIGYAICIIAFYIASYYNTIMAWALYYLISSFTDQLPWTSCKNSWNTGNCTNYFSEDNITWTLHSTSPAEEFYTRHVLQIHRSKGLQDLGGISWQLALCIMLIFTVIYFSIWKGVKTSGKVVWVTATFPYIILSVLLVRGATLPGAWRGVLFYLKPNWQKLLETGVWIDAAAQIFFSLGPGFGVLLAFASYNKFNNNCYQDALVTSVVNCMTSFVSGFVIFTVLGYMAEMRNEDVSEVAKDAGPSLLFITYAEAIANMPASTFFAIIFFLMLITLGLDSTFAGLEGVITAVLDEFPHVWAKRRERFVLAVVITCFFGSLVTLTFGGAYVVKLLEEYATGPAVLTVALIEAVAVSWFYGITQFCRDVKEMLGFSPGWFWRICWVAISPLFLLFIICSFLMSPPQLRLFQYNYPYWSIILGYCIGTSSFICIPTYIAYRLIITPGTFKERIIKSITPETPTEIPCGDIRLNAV

`CC1(C)NCC(c2ccc(Cl)c(Cl)c2)c2ccc(-c3ccc(C(F)(F)F)nn3)cc21` (single isomer, unassigned) [Example 10, 4-(3,4-dichlorophenyl)-7-(6-(trifluoromethyl)pyridazin-3-yl)-1,1-dimethyl-1,2,3,4-tetrahydroisoquinoline]: on hNET, the IC50 was found to be 549 nM.
Regarding `CC1(C)NCC(c2ccc(Cl)cc2)c2ccc(-c3ccc(C(F)(F)F)nn3)cc21` (single isomer, unassigned) [Example 35, 4-(4-chlorophenyl)-1,1-dimethyl-7-(6-(trifluoromethyl)pyridazin-3-yl)-1,2,3,4-tetrahydroisoquinoline], the IC50 stood at 80.2 nM at hDAT, 1020 nM at hNET and 61.1 nM at hSERT.
As for `CNc1ccc(-c2ccc3c(c2)CNCC3c2ccc(F)cc2)nn1` (single isomer, unassigned; (+)) [Example 3, (+)-6-(4-(4-fluorophenyl)-1,2,3,4-tetrahydroisoquinolin-7-yl)-N-methylpyridazin-3-amine], the values for the IC50 at hDAT (setting [1]), on hNET and on hSERT (setting [2]) were 90.5 nM, 150 nM and 53.8 nM, respectively.
On the same counts, the results for `FC(F)(F)c1ccc(-c2ccc3c(c2)NCCC3c2ccc(Cl)cc2)nn1` (single isomer, unassigned; (+)) [Example 4, (+)-4-(4-chlorophenyl)-7-(6-(trifluoromethyl)pyridazin-3-yl)-1,2,3,4-tetrahydroquinoline] are 138 nM, 47.3 nM and 21.4 nM.
In the case of `Nc1ccc(-c2ccc3c(c2)CNCC3c2ccc(Cl)cc2)nn1` (single isomer, unassigned; (+)) [Example 5, (+)-6-(4-(4-chlorophenyl)-1,2,3,4-tetrahydroisoquinolin-7-yl)pyridazin-3-amine], the IC50 at hDAT (setting [1]) came to 31.2 nM; on hNET, 63.1 nM; on hSERT (setting [2]), 15.8 nM.
Taken in the same sequence, the figures for `Fc1cc2c(cc1-c1ccc(C(F)(F)F)nn1)CNCC2c1ccc(Cl)c(Cl)c1` (single isomer, unassigned; (+)) [Example 29, (+)-4-(3,4-dichlorophenyl)-6-fluoro-7-(6-(trifluoromethyl)pyridazin-3-yl)-1,2,3,4-tetrahydroisoquinoline] were 78.3 nM, 34.1 nM and 29.7 nM.
Taken in the same sequence, the figures for `Fc1cc2c(cc1-c1ccc(OC(F)F)nn1)CNCC2c1ccc(Cl)c(Cl)c1` (single isomer, unassigned; (+)) [Example 31, (+)-4-(3,4-dichlorophenyl)-7-(6-(difluoromethoxy)pyridazin-3-yl)-6-fluoro-1,2,3,4-tetrahydroisoquinoline] were 33 nM, 9.8 nM and 15.9 nM.
Taken in the same sequence, the figures for `Fc1cc2c(cc1-c1ccc3ncnn3c1)CNCC2c1ccc(Cl)c(Cl)c1` (single isomer, unassigned; (+)) [Example 39, (+)-7-([1,2,4]triazolo[1,5-a]pyridin-6-yl)-4-(3,4-dichlorophenyl)-6-fluoro-1,2,3,4-tetrahydroisoquinoline] were 83.2 nM, 70.4 nM and 14.1 nM.
As for `Cc1ccc(C2CCNc3cc(-c4ccc(C)nn4)ccc32)cc1` (stereo not shown) [Example 1, 7-(6-methylpridazin-3-yl)-4-p-tolyl-1,2,3,4-tetrahydroquinoline], the IC50 worked out at 64.5 nM at hDAT (setting [1]), 174 nM on hNET and 27.9 nM at hSERT (setting [2]).
On to `Nc1ccc(-c2ccc3c(c2)CNCC3c2ccc(F)cc2)nn1` (stereo not shown) [Example 2, 6-(4-(4-fluorophenyl)-1,2,3,4-tetrahydroisoquinolin-7-yl)pyridazin-3-amine], for which the results for the half-inhibitory concentration (IC50) at hDAT (setting [1]), on hNET and at hSERT (setting [2]) were 89.4 nM, 360 nM and 144 nM, respectively.
As for `CC1NCC(c2ccc(Cl)cc2)c2ccc(-c3ccc(Cl)nn3)cc21` (stereo not shown) [Example 6, 4-(4-Chloro-phenyl)-7-(6-chloro-pyridazin-3-yl)-1-methyl-1,2,3,4-tetrahydro-isoquinoline], the inhibition at 0.1 µM was 9% on hDAT, 0% at hNET and 35% at hSERT.
Taken in the same sequence, the figures for `CC1NCC(c2ccc(Cl)cc2)c2ccc(-c3cccnn3)cc21` (stereo not shown) [Example 7, 4-(4-Chloro-phenyl)-7-(pyridazin-3-yl)-1-methyl-1,2,3,4-tetrahydro-isoquinoline] were 16%, 0% and 35%.
On the same counts, the results for `COc1ccc(-c2ccc3c(c2)C(C)NCC3c2ccc(Cl)cc2)nn1` (stereo not shown) [Example 8, 4-(4-Chloro-phenyl)-7-(6-methoxy-pyridazin-3-yl)-1-methyl-1,2,3,4-tetrahydro-isoquinoline] are 30%, 49% and 59%.
For the compound `FC(F)(F)c1ccc(-c2ccc3c(c2)CNCC3c2ccc(Cl)c(Cl)c2)nn1` (stereo not shown) [Example 11, 4-(3,4-dichlorophenyl)-7-(6-(trifluoromethyl)pyridazin-3-yl)-1,2,3,4-tetrahydroisoquinoline], the IC50 on hDAT (setting [1]) was found to be 80 nM; on hNET, 13 nM; at hSERT (setting [2]), 10 nM.
Taken in the same sequence, the figures for `N#Cc1cccc(-c2ccc3c(c2)CNCC3c2ccc(Cl)c(Cl)c2)c1` (stereo not shown) [Example 15, 3-(4-(3,4-dichlorophenyl)-1,2,3,4-tetrahydroisoquinolin-7-yl)benzonitrile] were 213 nM, 86 nM and 14 nM.
On the same counts, the results for `CS(=O)(=O)c1ccc(-c2ccc3c(c2)CNCC3c2ccc(Cl)c(Cl)c2)cc1` (stereo not shown) [Example 16, 4-(3,4-dichlorophenyl)-7-(4-(methylsulfonyl)phenyl)-1,2,3,4-tetrahydroisoquinoline] are 77 nM, 13 nM and 20 nM.
